The test has as its system Clostridium difficile clinical isolate growth, OD600, 24 h. Briefly: growth modulation of Clostridium difficile isolate – OD600, 9-point, retest, dose response (AID 1224920).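 Also: inhibitors lower culture turbidity so OD600 falls.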

Molecules are shown by their SMILES. “And” between values parts separate entries of the source, which are not always exact repeats. Equal values may be shown once. The source made the active and inactive calls.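 The calls were made as follows: active = IC50 no higher than ten times the top tested dose; inconclusive = flat fit with 30 to 70% inhibition, or poor fit; inactive = IC50 above ten times the top dose.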

The IC50 is the point on the concentration scale where inhibition reaches its midpoint. Regarding `N#Cc1cccc(-c2ccc(C3[C@H]4CNC[C@@H]3N4Cc3ccc(F)cc3)cc2)c1` (stereo not given in full), the IC50 was 29.4 µM. `COc1ccccc1S(=O)(=O)N1C[C@@H]2N[C@H](C1)C2c1ccc(-c2cccc(C)c2)cc1` (stereo not given in full): the IC50 was 53.5 µM. Regarding `O=C(Nc1ccccc1)N1CCCCN2[C@@H](CO)[C@@H](c3ccc(-c4ccccc4F)cc3)[C@@H]2C1`, the IC50 was 27.9 µM. In the case of `COc1cccc(S(=O)(=O)N2C[C@@H]3N[C@H](C2)C3c2ccc(-c3ccccc3C)cc2)c1` (stereo not given in full), the IC50 was 28.6 µM.

Regarding `N#Cc1ccc(-c2ccc([C@@H]3[C@H]4CNC[C@@H]3N4Cc3cc(F)ccc3F)cc2)cc1`, the concentration for half-maximal inhibition (IC50) was 58.8 µM.

`Cc1ccccc1-c1ccc([C@H]2[C@H](CO)N3CCCCN(C(=O)Nc4cccc(F)c4)C[C@@H]23)cc1`: the IC50 was 29.1 µM. On to `OC[C@H]1[C@H](c2ccc(C#CC3CCCC3)cc2)[C@@H]2CN(CCC(F)(F)F)CCCCN12`, for which the IC50 was 35 µM.

With `O=S(=O)(c1ccccc1)N1C[C@@H]2N[C@H](C1)C2c1ccc(/C=C/c2ccccc2)cc1` (stereo not given in full), the IC50 is 8.5 µM.

As to `O=C(Nc1ccccc1)N1CCCCN2[C@H](CO)[C@@H](c3ccc(C#Cc4ccccc4)cc3)[C@H]2C1`, the concentration for half-maximal inhibition (IC50) was 33.5 µM. `COc1cc(CN2[C@@H]3CNC[C@H]2C3c2ccc(-c3ccccc3)cc2)cc(OC)c1` (stereo not given in full): the IC50 is 14.8 µM.

Turning to `COc1cc(CN2[C@@H]3CNC[C@H]2C3c2ccc(-c3ccc(C#N)cc3)cc2)cc(OC)c1` (stereo not given in full), the IC50 was 48.1 µM.

For `CCNC(=O)C[C@H]1CC[C@@H]2[C@H](COC[C@H](O)CN2C(=O)Nc2ccc(C(F)(F)F)cc2)O1`, the IC50 was 9.45 µM. As for `O=C(C1CCCCC1)N1C[C@@H]2N[C@H](C1)C2c1ccc(-c2cccc(F)c2)cc1` (stereo not given in full), the IC50 is 67.8 µM. As to `Cc1ccccc1-c1ccc([C@@H]2[C@H](CO)N3CCCCN(C(=O)Nc4cccc(F)c4)C[C@@H]23)cc1`, the IC50 is 14.7 µM. Consider `O=C(Nc1ccccc1)N1CCCCN2[C@@H](CO)[C@H](c3ccc(C#Cc4ccccc4)cc3)[C@@H]2C1`, for which the IC50 was 19.2 µM. As for `Cc1ccc(-c2ccc(C3[C@H]4CNC[C@@H]3N4S(=O)(=O)c3ccccc3C)cc2)cc1` (stereo not given in full), the figure is 27.6 µM; as for `FC(F)(F)c1cccc(CN2[C@@H]3CNC[C@H]2[C@@H]3c2ccc(-c3cccnc3)cc2)c1`, 103 µM; as for `Cc1ccccc1-c1ccc([C@@H]2[C@H](CO)N3CCCCN(C(=O)Nc4ccc(F)cc4)C[C@@H]23)cc1`, 13.9 µM. With `O=C(Nc1ccc(C(F)(F)F)cc1)N1C[C@@H]2N[C@H](C1)C2c1ccc(/C=C/c2ccccc2)cc1` (stereo not given in full), the IC50 is 1.98 µM and 3.86 µM. `O=C(C[C@@H]1CC[C@@H]2[C@H](COC[C@@H](O)CN2C(=O)Nc2ccc(C(F)(F)F)cc2)O1)NC1Cc2ccccc2C1`: the IC50 was 6.53 µM. Take `O=C(C[C@@H]1CC[C@@H]2[C@H](COC[C@@H](O)CN2C(=O)Nc2ccc(Cl)c(Cl)c2)O1)NC1CCC1`: the IC50 was 5.89 µM.

With `Cc1cccc(-c2ccc([C@@H]3[C@@H]4CN(C(=O)CN(C)C)C[C@H]3N4)cc2)c1`, the IC50 was 61.5 µM. Take `O=C(C1CCCCC1)N1CC2(C1)[C@H](c1ccccc1)[C@H](CO)N2Cc1ccc(Cl)cc1`: the IC50 is 33.7 µM. For `Fc1cccc(CN2[C@@H]3CNC[C@H]2C3c2ccc(-c3cccc(F)c3)cc2)c1` (stereo not given in full) the value was 28 µM; for `Cc1ccccc1-c1ccc(C2[C@@H]3CN(C(=O)Nc4ccc(F)cc4)C[C@H]2N3)cc1` (stereo not given in full), 40.5 µM; for `CCNC(=O)C[C@@H]1CC[C@@H]2[C@H](COC[C@H](O)CN2C(=O)Nc2ccc(C(F)(F)F)cc2)O1`, 16.1 µM.

`N#Cc1ccc(-c2ccc3c(c2)[C@H]2[C@H](CCN2C(=O)c2ccncc2)[C@H](CO)N3)cc1`: the IC50 was > 120 µM (inactive). On to `COc1ccc(C#Cc2ccc([C@@H]3[C@H](CO)N4CCCCN(C(=O)Nc5ccc(F)cc5)C[C@@H]34)cc2)cc1`, for which the IC50 is 6.67 µM. For `O=S(=O)(c1ccccc1F)N1C[C@@H]2N[C@H](C1)C2c1ccc(/C=C/c2ccccc2)cc1` (stereo not given in full) the value was 19.4 µM; for `COc1ccccc1C#Cc1ccc2c(c1)[C@@H]1[C@@H](CCN1C(=O)c1ccncc1)[C@@H](CO)N2`, > 120 µM (inactive).
